Legend:
[1] = xn = mol fraction of the nth substance listed; settings: 101.3 kPa, Liquid; for speed of sound: Frequency=3 MHz, Sing-around technique in a fixed-path interferometer; for mass density: Vibrating tube method
[2] = refractive index (Na D-line) (dimensionless); xn = mol fraction of the nth substance listed; settings: 101.3 kPa, Liquid, Standard Abbe refractometry

COS(=O)(=O)[O-].Cn1cc[n+](C)c1 [1,3-dimethylimidazolium methylsulfate] + CCCCO
Settings | mass density, [1] [kg/m3] | refractive index, [2] | speed of sound, [1] [m/s]
298 K, x1 = 0.063 | 861 | 1.405 | 1263
298 K, x1 = 0.221 | 982 | 1.421 | 1357
298 K, x1 = 0.432 | 1108 | 1.443 | 1500
298 K, x1 = 0.64 | 1205 | 1.46 | 1617
298 K, x1 = 0.781 | 1258 | 1.47 | 1688
298 K, x1 = 0.927 | 1307 | 1.479 | 1761
298 K, x1 = 1 | 1329 | 1.483 | 1811
303 K, x1 = 0.063 | 857 | 1.401 | 1246
303 K, x1 = 0.221 | 977 | 1.418 | 1341
303 K, x1 = 0.432 | 1102 | 1.439 | 1485
303 K, x1 = 0.64 | 1198 | 1.457 | 1602
303 K, x1 = 0.781 | 1252 | 1.468 | 1675
303 K, x1 = 0.927 | 1300 | 1.477 | 1748
303 K, x1 = 1 | 1322 | 1.481 | 1799
308 K, x1 = 0.063 | 852 | 1.398 | 1229
308 K, x1 = 0.221 | 972 | 1.414 | 1325
308 K, x1 = 0.432 | 1097 | 1.435 | 1469
308 K, x1 = 0.64 | 1193 | 1.454 | 1587
308 K, x1 = 0.781 | 1248 | 1.465 | 1661
308 K, x1 = 0.927 | 1297 | 1.475 | 1735
308 K, x1 = 1 | 1319 | 1.48 | 1787
313 K, x1 = 0.063 | 848 | 1.395 | 1213
313 K, x1 = 0.221 | 967 | 1.41 | 1309
313 K, x1 = 0.432 | 1092 | 1.431 | 1454
313 K, x1 = 0.64 | 1189 | 1.45 | 1572
313 K, x1 = 0.781 | 1243 | 1.461 | 1647
313 K, x1 = 0.927 | 1293 | 1.472 | 1722
313 K, x1 = 1 | 1315 | 1.479 | 1775

CCn1cc[n+](C)c1.COS(=O)(=O)[O-] [1-ethyl-3-methylimidazolium methylsulfate] + CCCCCO
Settings | mass density, [1] [kg/m3] | refractive index, [2] | speed of sound, [1] [m/s]
298 K, x1 = 0.05 | 849 | 1.413 | 1291
298 K, x1 = 0.284 | 999 | 1.435 | 1425
298 K, x1 = 0.459 | 1089 | 1.448 | 1527
298 K, x1 = 0.613 | 1157 | 1.458 | 1603
298 K, x1 = 0.768 | 1216 | 1.468 | 1662
298 K, x1 = 0.922 | 1268 | 1.476 | 1721
298 K, x1 = 1 | 1292 | 1.48 | 1762
303 K, x1 = 0.05 | 845 | 1.412 | 1274
303 K, x1 = 0.284 | 994 | 1.434 | 1409
303 K, x1 = 0.459 | 1085 | 1.447 | 1511
303 K, x1 = 0.613 | 1153 | 1.457 | 1588
303 K, x1 = 0.768 | 1212 | 1.466 | 1648
303 K, x1 = 0.922 | 1265 | 1.475 | 1708
303 K, x1 = 1 | 1289 | 1.479 | 1750
308 K, x1 = 0.05 | 841 | 1.411 | 1258
308 K, x1 = 0.284 | 990 | 1.432 | 1393
308 K, x1 = 0.459 | 1081 | 1.445 | 1496
308 K, x1 = 0.613 | 1149 | 1.455 | 1573
308 K, x1 = 0.768 | 1208 | 1.465 | 1634
308 K, x1 = 0.922 | 1261 | 1.473 | 1695
308 K, x1 = 1 | 1285 | 1.478 | 1739
313 K, x1 = 0.05 | 837 | 1.409 | 1241
313 K, x1 = 0.284 | 986 | 1.43 | 1377
313 K, x1 = 0.459 | 1077 | 1.443 | 1480
313 K, x1 = 0.613 | 1145 | 1.453 | 1559
313 K, x1 = 0.768 | 1205 | 1.463 | 1620
313 K, x1 = 0.922 | 1258 | 1.472 | 1682
313 K, x1 = 1 | 1282 | 1.476 | 1727

From the NIST ThermoML archive (doi:10.1016/j.jct.2017.02.022)
